Assay results taken from article PMC11045757, “Group 3 medulloblastoma transcriptional networks collapse under domain specific EP300/CBP inhibition” (Nature Communications, 2024).

Tested on: 460 barcoded cancer cell lines
Assay: PRISM pooled barcoded cancer cell line growth screen, 10-point dose-response, 5 days, AUC
Format: cell-based
Set-up: scale not given here
Source text: Several small molecule inhibitors of distinct protein domains of EP300/CBP are available, though the majority target the histone acetyltransferase domain (HAT) or bromodomain (BRD)[5],[10],[21],[22]. […] We used these tools to investigate the relative contribution of the EP300/CBP BRD or HAT domain to tumor cell growth (Fig. 1a). To do so, we performed 10-point, dose-response growth assays using mixed pools of 460 barcoded cancer cell lines, over five days of treatment in vitro[33],[34]. Growth was measured using an area-under-the-curve (AUC) approach (Supplementary Table 1, Supplementary Fig. 1a). […] Given potential differences in compound penetration and solubility, and to compare the relative cell line and tumor-specific effects of these two compounds in assays performed non-simultaneously, we performed a median normalization of each dataset (Supplementary Table 2).

SMILES: CNC(=O)Nc1ccc2c(c1)CCC21OC(=O)N(CC(=O)N(Cc2ccc(F)cc2)C(C)C(F)(F)F)C1=O (stereo not shown) [Compound A485]
- AUC (SH4, Melanoma): 0.7491
- AUC (SH10TC, Gastric Cancer): 0.9483
- AUC (SHP77, Lung Cancer): 1
- AUC (SIMA, Neuroblastoma): 0.7689
- AUC (SJSA1, Osteosarcoma): 0.6938
- AUC (SKES1, Ewing Sarcoma): 0.5686
- AUC (SKHEP1, Liver Cancer): 0.9176
- AUC (SKM1, AML): 0.6691
- AUC (SKMEL30, Melanoma): 0.8035
- AUC (SKMES1, Lung Cancer): 0.6858
- AUC (SKMM2, Myeloma): 0.9139
- AUC (SKNAS, Neuroblastoma): 0.7465
- AUC (SKNBE2, Neuroblastoma): 0.711
- AUC (SKNDZ, Neuroblastoma): 0.8727
- AUC (SKNEP1, Ewing Sarcoma): 0.6902
- AUC (SKNMC, Ewing Sarcoma): 0.8779
- AUC (SKNO1, AML): 0.8126
- AUC (SKNSH, Neuroblastoma): 0.7441
- AUC (SKOV3, Ovarian Cancer): 0.768
- AUC (SKUT1, Leiomyosarcoma): 0.8397
- AUC (SNU1, Gastric Cancer): 1
- AUC (SNU46, Head and Neck Cancer): 0.6485
- AUC (SNU61, Colon/Colorectal Cancer): 0.8187
- AUC (SNU81, Colon/Colorectal Cancer): 0.8344
- AUC (SNU182, Liver Cancer): 0.5802
- AUC (SNU201, Glioblastoma): 0.8259
- AUC (SNU213, Pancreatic Cancer): 0.8601
- AUC (SNU216, Gastric Cancer): 0.8096
- AUC (SNU245, Bile Duct Cancer): 0.7564
- AUC (SNU398, Liver Cancer): 0.8358
- AUC (SNU407, Colon/Colorectal Cancer): 0.7333
- AUC (SNU423, Liver Cancer): 0.7846
- AUC (SNU449, Liver Cancer): 0.9343
- AUC (SNU466, Glioblastoma): 0.8159
- AUC (SNU478, Bile Duct Cancer): 0.7556
- AUC (SNU601, Gastric Cancer): 0.8298
- AUC (SNU668, Gastric Cancer): 0.8689
- AUC (SNU685, Endometrial/Uterine Cancer): 0.8766
- AUC (SNU719, Gastric Cancer): 0.9255
- AUC (SNU869, Bile Duct Cancer): 0.9315
- AUC (SNU878, Liver Cancer): 0.7163
- AUC (SNU886, Liver Cancer): 0.7207
- AUC (SNU1041, Head and Neck Cancer): 0.836
- AUC (SNU1066, Head and Neck Cancer): 0.7809
- AUC (SNU1076, Head and Neck Cancer): 0.7922
- AUC (SNU1077, Endometrial/Uterine Cancer): 0.8978
- AUC (SNU1079, Bile Duct Cancer): 0.8976
- AUC (SNU1105, Glioblastoma): 0.823
- AUC (SNU1196, Bile Duct Cancer): 0.8191
- AUC (SNU1214, Head and Neck Cancer): 0.7713
- AUC (SNUC2A, Colon/Colorectal Cancer): 1
- AUC (SNUC4, Colon/Colorectal Cancer): 0.6416
- AUC (SQ1, Lung Cancer): 0.8347
- AUC (SR786, Lymphoma): 0.6609
- AUC (STM9101, Rhabdoid): 0.89
- AUC (SUDHL8, Lymphoma): 0.5295
- AUC (SW48, Colon/Colorectal Cancer): 1
- AUC (SW579, Thyroid Cancer): 0.7659
- AUC (SW620, Colon/Colorectal Cancer): 0.9454
- AUC (SW780, Bladder Cancer): 0.7867
- AUC (SW837, Colon/Colorectal Cancer): 0.675
- AUC (SW900, Lung Cancer): 0.774
- AUC (SW948, Colon/Colorectal Cancer): 0.5667
- AUC (SW1088, Glioma): 0.7952
- AUC (SW1116, Colon/Colorectal Cancer): 0.9547
- AUC (SW1463, Colon/Colorectal Cancer): 0.6958
- AUC (SW1710, Bladder Cancer): 0.7157
- AUC (T3M10, Lung Cancer): 0.9036
- AUC (T24, Bladder Cancer): 0.9232
- AUC (T47D, Breast Cancer): 0.9704
- AUC (TALL1, T-acute leukemia): 0.6985
- AUC (TC71, Ewing Sarcoma): 0.9262
- AUC (TC106, Ewing Sarcoma): 0.5807
- AUC (TC205, Ewing Sarcoma): 0.554
- AUC (TCCPAN2, Pancreatic Cancer): 0.884
- AUC (TCCSUP, Bladder Cancer): 0.8481
- AUC (TE1, Esophageal Cancer): 0.8516
- AUC (TE4, Esophageal Cancer): 0.8986
- AUC (TE5, Esophageal Cancer): 0.8355
- AUC (TE6, Esophageal Cancer): 0.6845
- AUC (TE9, Esophageal Cancer): 0.9819
- AUC (TE10, Esophageal Cancer): 0.7055
- AUC (TE11, Esophageal Cancer): 0.5915
- AUC (TE15, Esophageal Cancer): 0.6898
- AUC (TE617T, Rhabdomyosarcoma): 0.7575
- AUC (TF1, AML): 0.4573
- AUC (TM87, Rhabdoid): 0.6723
- AUC (TOLEDO, Lymphoma): 0.9051
- AUC (TOV21G, Ovarian Cancer): 0.8786
- AUC (TT2609C02, Thyroid Cancer): 0.6078
- AUC (TT, Thyroid Cancer): 0.6637
- AUC (TTC442, Rhabdomyosarcoma): 0.8716
- AUC (TTC549, Rhabdoid): 0.683
- AUC (TTC642, Rhabdoid): 0.604
- AUC (TTC1240, Rhabdoid): 0.6274
- AUC (TYKNU, Ovarian Cancer): 0.7341
- AUC (U2OS, Osteosarcoma): 0.9217
- AUC (U266B1, Myeloma): 0.8925
- AUC (U937, AML): 0.6875
- AUC (UACC62, Melanoma): 0.717
- AUC (UACC257, Melanoma): 0.8193
- AUC (UBLC1, Bladder Cancer): 0.7124
- AUC (UMUC1, Bladder Cancer): 0.6454
- AUC (UW228, Medulloblastoma): 1
- AUC (VMCUB1, Bladder Cancer): 0.6611
- AUC (VMRCRCW, Kidney Cancer): 0.8987
- AUC (VMRCRCZ, Kidney Cancer): 0.5968
- AUC (WM88, Melanoma): 0.5816
- AUC (WM793, Melanoma): 0.8497
- AUC (WM983B, Melanoma): 0.7071
- AUC (YAPC, Pancreatic Cancer): 0.8726
- AUC (YD10B, Head and Neck Cancer): 0.7608
- AUC (YD15, Head and Neck Cancer): 0.6259
- AUC (YD38, Head and Neck Cancer): 0.5959
- AUC (YH13, Glioblastoma): 0.7751
